Measured values reported in publication PMC12670405, “Second-Generation AURKA-Targeting PROTACs: Structural Optimization toward in Vivo Degradation in Neuroblastoma” (Journal of Medicinal Chemistry, 2025).

How the values were obtained:
Assay in all cases: KINOMEscan scanMAX
Format in all cases: binding
Details in all cases: read-out: Percent Control
[1] = target: T1, JAK1(JH2domain-pseudokinase) (Homo sapiens, UniProt P23458)
T1 construct: JAK1(JH2domain-pseudokinase); purchased Eurofins Discovery (DiscoverX KINOMEscan scanMAX)
T1 sequence (P23458 561-860 limits assumed): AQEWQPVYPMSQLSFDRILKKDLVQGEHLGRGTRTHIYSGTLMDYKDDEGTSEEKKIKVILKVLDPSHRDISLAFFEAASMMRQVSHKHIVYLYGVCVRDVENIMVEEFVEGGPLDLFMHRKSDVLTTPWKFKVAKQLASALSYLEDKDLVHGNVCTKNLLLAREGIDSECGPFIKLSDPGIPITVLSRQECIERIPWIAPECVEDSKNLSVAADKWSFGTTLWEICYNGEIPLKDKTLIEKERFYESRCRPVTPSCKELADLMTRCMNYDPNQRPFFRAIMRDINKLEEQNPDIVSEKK
Description: (§1) The kinome-wide binding assay was performed by Eurofins Discovery using the scanMAX screening platform. More information can be found on the Eurofins Discovery Web site.

AXL = target: T2, AXL (Homo sapiens, UniProt P30530)
T2 construct: purchased Eurofins Discovery (DiscoverX KINOMEscan scanMAX)
Description: as §1

SLK = target: T3, SLK (Homo sapiens, UniProt Q9H2G2)
T3 construct: purchased Eurofins Discovery (DiscoverX KINOMEscan scanMAX)
Description: as §1

MAP4K3 = target: T4, MAP4K3 (Homo sapiens, UniProt Q8IVH8)
T4 construct: purchased Eurofins Discovery (DiscoverX KINOMEscan scanMAX)
Description: as §1

PRKX = target: T5, PRKX (Homo sapiens, UniProt P51817)
T5 construct: purchased Eurofins Discovery (DiscoverX KINOMEscan scanMAX)
T5 sequence (P51817 whole entry): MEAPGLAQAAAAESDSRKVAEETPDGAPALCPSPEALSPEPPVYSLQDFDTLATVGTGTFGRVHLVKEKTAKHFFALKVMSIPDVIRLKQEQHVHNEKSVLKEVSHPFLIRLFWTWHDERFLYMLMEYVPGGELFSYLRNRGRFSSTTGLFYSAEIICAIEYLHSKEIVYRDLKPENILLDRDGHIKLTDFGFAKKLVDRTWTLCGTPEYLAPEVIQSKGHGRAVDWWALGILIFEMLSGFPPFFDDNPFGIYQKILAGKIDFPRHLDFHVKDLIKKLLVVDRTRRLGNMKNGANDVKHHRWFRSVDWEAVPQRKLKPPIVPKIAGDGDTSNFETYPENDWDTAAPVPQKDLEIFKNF
Description: as §1

ERK4 = target: T6, ERK4 (Homo sapiens, UniProt P31152)
T6 construct: purchased Eurofins Discovery (DiscoverX KINOMEscan scanMAX)
Description: as §1

PRKR = target: T7, PRKR (Homo sapiens, UniProt P19525)
T7 construct: purchased Eurofins Discovery (DiscoverX KINOMEscan scanMAX)
Description: as §1

CSF1R-autoinhibited = target: T8, CSF1R-autoinhibited (Homo sapiens, UniProt P07333)
T8 construct: purchased Eurofins Discovery (DiscoverX KINOMEscan scanMAX)
Description: as §1

CSNK1A1 = target: T9, CSNK1A1 (Homo sapiens, UniProt P48729)
T9 construct: purchased Eurofins Discovery (DiscoverX KINOMEscan scanMAX)
Description: as §1

KIT(V559D,V654A) = target: T10, KIT(V559D,V654A) (Homo sapiens, UniProt P10721, V559D/V654A)
T10 construct: purchased Eurofins Discovery (DiscoverX KINOMEscan scanMAX)
Description: as §1

RIOK1 = target: T11, RIOK1 (Homo sapiens, UniProt Q9BRS2)
T11 construct: purchased Eurofins Discovery (DiscoverX KINOMEscan scanMAX)
Description: as §1

LRRK2(G2019S) = target: T12, LRRK2(G2019S) (Homo sapiens, UniProt Q5S007, G2019S)
T12 construct: purchased Eurofins Discovery (DiscoverX KINOMEscan scanMAX)
Description: as §1

PRKG2 = target: T13, PRKG2 (Homo sapiens, UniProt Q13237)
T13 construct: purchased Eurofins Discovery (DiscoverX KINOMEscan scanMAX)
Description: as §1

[2] = target: T14, ABL1(T315I)-phosphorylated (Homo sapiens, UniProt P00519, T315I)
T14 construct: purchased Eurofins Discovery (DiscoverX KINOMEscan scanMAX)
Description: as §1

GRK7 = target: T15, GRK7 (Homo sapiens, UniProt Q8WTQ7)
T15 construct: purchased Eurofins Discovery (DiscoverX KINOMEscan scanMAX)
T15 sequence (Q8WTQ7 whole entry): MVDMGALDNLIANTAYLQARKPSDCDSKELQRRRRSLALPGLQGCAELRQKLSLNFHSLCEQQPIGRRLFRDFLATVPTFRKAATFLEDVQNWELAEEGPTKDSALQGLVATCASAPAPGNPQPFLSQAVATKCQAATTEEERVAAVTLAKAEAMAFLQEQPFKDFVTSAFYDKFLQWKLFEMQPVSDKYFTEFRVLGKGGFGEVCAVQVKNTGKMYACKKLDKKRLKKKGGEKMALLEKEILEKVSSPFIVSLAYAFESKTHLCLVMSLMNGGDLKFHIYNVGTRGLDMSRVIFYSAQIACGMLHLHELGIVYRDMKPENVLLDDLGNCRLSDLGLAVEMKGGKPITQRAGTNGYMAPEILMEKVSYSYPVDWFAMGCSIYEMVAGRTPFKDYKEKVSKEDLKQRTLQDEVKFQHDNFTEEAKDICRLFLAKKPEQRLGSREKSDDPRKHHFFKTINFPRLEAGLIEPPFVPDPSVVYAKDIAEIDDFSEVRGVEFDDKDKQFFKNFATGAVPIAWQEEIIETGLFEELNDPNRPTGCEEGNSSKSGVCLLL
Description: as §1

[3] = target: T16, TYK2(JH2domain-pseudokinase) (Homo sapiens, UniProt P29597)
T16 construct: TYK2(JH2domain-pseudokinase); purchased Eurofins Discovery (DiscoverX KINOMEscan scanMAX)
T16 sequence (P29597 556-888 limits assumed): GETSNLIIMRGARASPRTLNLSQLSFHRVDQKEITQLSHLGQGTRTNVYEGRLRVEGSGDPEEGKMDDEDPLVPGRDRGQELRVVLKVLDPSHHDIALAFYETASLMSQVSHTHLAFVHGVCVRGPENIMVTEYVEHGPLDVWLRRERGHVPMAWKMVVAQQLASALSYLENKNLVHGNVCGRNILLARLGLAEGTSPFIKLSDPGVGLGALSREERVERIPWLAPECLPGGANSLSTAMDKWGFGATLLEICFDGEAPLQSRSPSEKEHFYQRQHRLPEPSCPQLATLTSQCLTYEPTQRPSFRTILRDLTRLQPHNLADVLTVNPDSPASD
Description: as §1

CDC2L2 = target: T17, CDC2L2 (Homo sapiens, UniProt Q9UQ88)
T17 construct: purchased Eurofins Discovery (DiscoverX KINOMEscan scanMAX)
Description: as §1

BMPR1B = target: T18, BMPR1B (Homo sapiens, UniProt O00238)
T18 construct: purchased Eurofins Discovery (DiscoverX KINOMEscan scanMAX)
Description: as §1

MLCK = target: T19, MLCK (Homo sapiens, UniProt Q32MK0)
T19 construct: purchased Eurofins Discovery (DiscoverX KINOMEscan scanMAX)
T19 sequence (Q32MK0 whole entry): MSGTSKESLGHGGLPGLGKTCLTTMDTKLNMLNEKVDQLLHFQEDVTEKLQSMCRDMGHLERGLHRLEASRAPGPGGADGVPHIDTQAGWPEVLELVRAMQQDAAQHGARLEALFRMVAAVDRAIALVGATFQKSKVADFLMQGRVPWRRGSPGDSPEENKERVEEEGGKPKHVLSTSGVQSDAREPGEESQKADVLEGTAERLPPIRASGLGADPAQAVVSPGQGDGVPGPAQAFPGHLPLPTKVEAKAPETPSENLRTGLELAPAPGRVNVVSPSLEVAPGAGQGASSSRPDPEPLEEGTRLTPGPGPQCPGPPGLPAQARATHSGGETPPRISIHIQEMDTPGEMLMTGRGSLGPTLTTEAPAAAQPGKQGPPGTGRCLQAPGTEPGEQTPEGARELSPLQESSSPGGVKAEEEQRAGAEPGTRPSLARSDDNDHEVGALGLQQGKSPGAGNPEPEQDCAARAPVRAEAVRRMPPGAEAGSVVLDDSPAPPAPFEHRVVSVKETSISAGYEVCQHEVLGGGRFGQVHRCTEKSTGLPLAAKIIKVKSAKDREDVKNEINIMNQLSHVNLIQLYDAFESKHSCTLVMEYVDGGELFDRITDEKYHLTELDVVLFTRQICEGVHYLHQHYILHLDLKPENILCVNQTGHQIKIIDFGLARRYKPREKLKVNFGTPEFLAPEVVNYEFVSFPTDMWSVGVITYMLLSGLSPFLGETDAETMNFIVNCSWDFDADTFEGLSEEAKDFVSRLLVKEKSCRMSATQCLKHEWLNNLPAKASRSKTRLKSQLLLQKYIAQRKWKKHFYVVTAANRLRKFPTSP
Description: as §1

SgK110 = target: T20, SgK110 (Homo sapiens, UniProt P0C264)
T20 construct: purchased Eurofins Discovery (DiscoverX KINOMEscan scanMAX)
Description: as §1

NDR1 = target: T21, NDR1 (Homo sapiens, UniProt Q15208)
T21 construct: purchased Eurofins Discovery (DiscoverX KINOMEscan scanMAX)
Description: as §1

PCTK1 = target: T22, PCTK1 (Homo sapiens, UniProt Q00536)
T22 construct: purchased Eurofins Discovery (DiscoverX KINOMEscan scanMAX)
Description: as §1

CAMK1G = target: T23, CAMK1G (Homo sapiens, UniProt Q96NX5)
T23 construct: purchased Eurofins Discovery (DiscoverX KINOMEscan scanMAX)
T23 sequence (Q96NX5 whole entry): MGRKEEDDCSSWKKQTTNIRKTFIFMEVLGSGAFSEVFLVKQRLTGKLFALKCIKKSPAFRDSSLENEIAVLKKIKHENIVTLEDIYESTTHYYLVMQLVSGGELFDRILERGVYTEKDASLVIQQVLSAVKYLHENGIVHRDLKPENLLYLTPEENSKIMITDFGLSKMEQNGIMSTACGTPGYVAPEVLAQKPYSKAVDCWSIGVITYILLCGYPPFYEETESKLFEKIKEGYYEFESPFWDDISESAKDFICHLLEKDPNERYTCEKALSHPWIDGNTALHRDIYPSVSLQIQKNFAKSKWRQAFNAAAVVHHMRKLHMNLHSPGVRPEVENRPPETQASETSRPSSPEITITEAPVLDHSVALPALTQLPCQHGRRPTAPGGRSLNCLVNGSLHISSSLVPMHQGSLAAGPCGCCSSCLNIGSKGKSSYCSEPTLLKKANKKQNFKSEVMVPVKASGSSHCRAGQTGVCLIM
Description: as §1

PRKG1 = target: T24, PRKG1 (Homo sapiens, UniProt Q13976)
T24 construct: purchased Eurofins Discovery (DiscoverX KINOMEscan scanMAX)
Description: as §1

FAK = target: T25, FAK (Homo sapiens, UniProt Q05397)
T25 construct: purchased Eurofins Discovery (DiscoverX KINOMEscan scanMAX)
Description: as §1

DCAMKL2 = target: T26, DCAMKL2 (Homo sapiens, UniProt Q8N568)
T26 construct: purchased Eurofins Discovery (DiscoverX KINOMEscan scanMAX)
T26 sequence (Q8N568 whole entry): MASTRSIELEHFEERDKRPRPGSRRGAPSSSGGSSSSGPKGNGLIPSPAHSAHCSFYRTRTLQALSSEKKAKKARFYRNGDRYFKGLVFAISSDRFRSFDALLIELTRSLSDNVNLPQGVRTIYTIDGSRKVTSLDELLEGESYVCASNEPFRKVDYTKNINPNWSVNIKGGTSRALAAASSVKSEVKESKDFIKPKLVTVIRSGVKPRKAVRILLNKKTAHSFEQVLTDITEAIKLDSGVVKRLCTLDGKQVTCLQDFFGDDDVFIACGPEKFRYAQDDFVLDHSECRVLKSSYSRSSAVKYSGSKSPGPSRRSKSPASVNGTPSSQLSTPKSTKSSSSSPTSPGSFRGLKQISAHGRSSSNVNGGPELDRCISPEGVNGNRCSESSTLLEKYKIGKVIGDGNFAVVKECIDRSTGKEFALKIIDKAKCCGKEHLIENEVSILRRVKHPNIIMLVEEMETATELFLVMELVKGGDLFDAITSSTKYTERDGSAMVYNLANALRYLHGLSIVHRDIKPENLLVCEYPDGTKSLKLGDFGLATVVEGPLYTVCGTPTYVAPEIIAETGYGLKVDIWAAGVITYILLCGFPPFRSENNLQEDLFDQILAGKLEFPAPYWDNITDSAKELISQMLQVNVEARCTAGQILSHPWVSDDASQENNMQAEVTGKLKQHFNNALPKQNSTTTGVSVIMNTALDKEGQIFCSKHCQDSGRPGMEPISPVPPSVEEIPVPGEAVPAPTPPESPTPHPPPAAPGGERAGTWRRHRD
Description: as §1

CSNK1E = target: T27, CSNK1E (Homo sapiens, UniProt P49674)
T27 construct: purchased Eurofins Discovery (DiscoverX KINOMEscan scanMAX)
Description: as §1

PRKCE = target: T28, PRKCE (Homo sapiens, UniProt Q02156)
T28 construct: purchased Eurofins Discovery (DiscoverX KINOMEscan scanMAX)
T28 sequence (Q02156 whole entry): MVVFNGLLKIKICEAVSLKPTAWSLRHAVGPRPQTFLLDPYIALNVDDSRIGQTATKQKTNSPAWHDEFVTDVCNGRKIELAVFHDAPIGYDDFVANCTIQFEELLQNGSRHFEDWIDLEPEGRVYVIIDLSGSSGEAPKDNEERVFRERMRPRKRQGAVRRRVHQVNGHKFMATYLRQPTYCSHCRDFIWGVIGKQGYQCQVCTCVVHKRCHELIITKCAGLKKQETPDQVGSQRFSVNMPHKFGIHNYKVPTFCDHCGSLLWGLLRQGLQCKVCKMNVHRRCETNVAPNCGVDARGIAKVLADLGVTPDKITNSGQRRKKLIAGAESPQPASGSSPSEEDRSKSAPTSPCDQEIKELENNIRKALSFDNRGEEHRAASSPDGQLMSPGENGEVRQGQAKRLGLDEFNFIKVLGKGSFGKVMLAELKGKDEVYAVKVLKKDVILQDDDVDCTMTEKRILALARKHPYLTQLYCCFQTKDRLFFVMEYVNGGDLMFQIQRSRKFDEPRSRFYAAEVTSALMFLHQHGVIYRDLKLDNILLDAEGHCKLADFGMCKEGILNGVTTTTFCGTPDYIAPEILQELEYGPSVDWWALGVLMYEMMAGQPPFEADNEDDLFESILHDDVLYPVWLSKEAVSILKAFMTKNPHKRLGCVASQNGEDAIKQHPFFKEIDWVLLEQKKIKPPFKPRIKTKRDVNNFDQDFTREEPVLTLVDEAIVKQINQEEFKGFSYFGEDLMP
Description: as §1

DRAK1 = target: T29, DRAK1 (Homo sapiens, UniProt Q9UEE5)
T29 construct: purchased Eurofins Discovery (DiscoverX KINOMEscan scanMAX)
Description: as §1

FLT3(D835H) = target: T30, FLT3(D835H) (Homo sapiens, UniProt P36888, D835H)
T30 construct: purchased Eurofins Discovery (DiscoverX KINOMEscan scanMAX)
Description: as §1

EGFR(S752-I759del) = target: T31, EGFR(S752-I759del) (Homo sapiens, UniProt P00533, DEL752-759)
T31 construct: purchased Eurofins Discovery (DiscoverX KINOMEscan scanMAX)
T31 sequence (P00533 with tags, fused parts or gaps DEL752-759 limits assumed): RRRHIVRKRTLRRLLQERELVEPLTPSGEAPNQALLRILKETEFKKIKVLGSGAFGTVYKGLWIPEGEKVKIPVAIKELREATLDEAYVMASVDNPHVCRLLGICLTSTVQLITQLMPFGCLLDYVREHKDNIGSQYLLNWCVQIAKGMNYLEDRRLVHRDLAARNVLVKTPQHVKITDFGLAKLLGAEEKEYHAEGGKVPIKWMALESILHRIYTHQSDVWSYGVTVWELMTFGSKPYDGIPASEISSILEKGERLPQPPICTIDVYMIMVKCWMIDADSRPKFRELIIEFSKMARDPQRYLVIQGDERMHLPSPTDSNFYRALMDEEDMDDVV
Description: as §1

ABL2 = target: T32, ABL2 (Homo sapiens, UniProt P42684)
T32 construct: purchased Eurofins Discovery (DiscoverX KINOMEscan scanMAX)
Description: as §1

DYRK1A = target: T33, DYRK1A (Homo sapiens, UniProt Q13627)
T33 construct: purchased Eurofins Discovery (DiscoverX KINOMEscan scanMAX)
Description: as §1

Work on `Cc1cc(Nc2ccc(F)c(CC3(C(=O)N4CCC(F)(CN5CCN(c6ccc(N7CCC(=O)NC7=O)cn6)CC5)CC4)CCN(Cc4cccc(Cl)c4F)CC3)n2)n[nH]1` [SK5527] yielded a remaining binding at 0.1 µM ([1]; 100 nM) of 94%, a remaining binding at 1 µM ([1]; 1000 nM) of 86% and a remaining binding at 0.1 µM (AXL; 100 nM) of 36%. For the same molecule, the remaining binding at 1 µM (AXL; 1000 nM) was 3.3%, the remaining binding at 0.1 µM (SLK; 100 nM) was 95% and the remaining binding at 1 µM (SLK; 1000 nM) was 100%. For the same molecule, the remaining binding at 0.1 µM (MAP4K3; 100 nM) was 82%, the remaining binding at 1 µM (MAP4K3; 1000 nM) was 72% and the remaining binding at 0.1 µM (PRKX; 100 nM) was 79%. The remaining binding at 1 µM (PRKX; 1000 nM) was 96%, the remaining binding at 0.1 µM (ERK4; 100 nM) was 97% and the remaining binding at 1 µM (ERK4; 1000 nM) was 98%. It also gave a remaining binding at 0.1 µM (PRKR; 100 nM) of 100%, a remaining binding at 1 µM (PRKR; 1000 nM) of 91% and a remaining binding at 0.1 µM (CSF1R-autoinhibited; 100 nM) of 100%. It also gave a remaining binding at 1 µM (CSF1R-autoinhibited; 1000 nM) of 100%, a remaining binding at 0.1 µM (CSNK1A1; 100 nM) of 100% and a remaining binding at 1 µM (CSNK1A1; 1000 nM) of 100%. The remaining binding at 0.1 µM (KIT(V559D,V654A); 100 nM) was 100%, the remaining binding at 1 µM (KIT(V559D,V654A); 1000 nM) was 97% and the remaining binding at 0.1 µM (RIOK1; 100 nM) was 100%. The remaining binding at 1 µM (RIOK1; 1000 nM) was 100%, the remaining binding at 0.1 µM (LRRK2(G2019S); 100 nM) was 73% and the remaining binding at 1 µM (LRRK2(G2019S); 1000 nM) was 67%. The remaining binding at 0.1 µM (PRKG2; 100 nM) was 86%, the remaining binding at 1 µM (PRKG2; 1000 nM) was 78% and the remaining binding at 0.1 µM ([2]; 100 nM) was 62%. The remaining binding at 1 µM ([2]; 1000 nM) was 17%, the remaining binding at 0.1 µM (GRK7; 100 nM) was 100% and the remaining binding at 1 µM (GRK7; 1000 nM) was 56%. For the same molecule, the remaining binding at 0.1 µM ([3]; 100 nM) was 51%, the remaining binding at 1 µM ([3]; 1000 nM) was 51% and the remaining binding at 0.1 µM (CDC2L2; 100 nM) was 99%. It also gave a remaining binding at 1 µM (CDC2L2; 1000 nM) of 98%, a remaining binding at 0.1 µM (BMPR1B; 100 nM) of 77% and a remaining binding at 1 µM (BMPR1B; 1000 nM) of 72%. For the same molecule, the remaining binding at 0.1 µM (MLCK; 100 nM) was 100%, the remaining binding at 1 µM (MLCK; 1000 nM) was 0% and the remaining binding at 0.1 µM (SgK110; 100 nM) was 100%. For the same molecule, the remaining binding at 1 µM (SgK110; 1000 nM) was 89%, the remaining binding at 0.1 µM (NDR1; 100 nM) was 98% and the remaining binding at 1 µM (NDR1; 1000 nM) was 82%. For the same molecule, the remaining binding at 0.1 µM (PCTK1; 100 nM) was 89%, the remaining binding at 1 µM (PCTK1; 1000 nM) was 88% and the remaining binding at 0.1 µM (CAMK1G; 100 nM) was 100%. For the same molecule, the remaining binding at 1 µM (CAMK1G; 1000 nM) was 92%, the remaining binding at 0.1 µM (PRKG1; 100 nM) was 92% and the remaining binding at 1 µM (PRKG1; 1000 nM) was 100%. The remaining binding at 0.1 µM (FAK; 100 nM) was 90%, the remaining binding at 1 µM (FAK; 1000 nM) was 77% and the remaining binding at 0.1 µM (DCAMKL2; 100 nM) was 93%. The remaining binding at 1 µM (DCAMKL2; 1000 nM) was 91%, the remaining binding at 0.1 µM (CSNK1E; 100 nM) was 92% and the remaining binding at 1 µM (CSNK1E; 1000 nM) was 91%. The remaining binding at 0.1 µM (PRKCE; 100 nM) was 100%, the remaining binding at 1 µM (PRKCE; 1000 nM) was 95% and the remaining binding at 0.1 µM (DRAK1; 100 nM) was 100%. For the same molecule, the remaining binding at 1 µM (DRAK1; 1000 nM) was 87%, the remaining binding at 0.1 µM (FLT3(D835H); 100 nM) was 89% and the remaining binding at 1 µM (FLT3(D835H); 1000 nM) was 54%. The remaining binding at 0.1 µM (EGFR(S752-I759del); 100 nM) was 98%, the remaining binding at 1 µM (EGFR(S752-I759del); 1000 nM) was 100% and the remaining binding at 0.1 µM (ABL2; 100 nM) was 100%. It also gave a remaining binding at 1 µM (ABL2; 1000 nM) of 66%, a remaining binding at 0.1 µM (DYRK1A; 100 nM) of 79% and a remaining binding at 1 µM (DYRK1A; 1000 nM) of 80%.
